Data on 26 compounds can be found in patent publication US20080234266A1, “Squaric Acid Derivatives II” (priority 2005, published 2008).

SMILES strings stand for the structures. Some results are limits rather than exact numbers.

As a reminder, the IC50 is the concentration that inhibits the measured activity by half.

For the assay, the target named is T1, CHK1 kinase (Homo sapiens, UniProt O14757).
T1 construct: glutathione S-transferase (GST); made in house; host or cells: Sf21 insect cells (S. frugiperda), baculovirus
T1 sequence (O14757 1-476): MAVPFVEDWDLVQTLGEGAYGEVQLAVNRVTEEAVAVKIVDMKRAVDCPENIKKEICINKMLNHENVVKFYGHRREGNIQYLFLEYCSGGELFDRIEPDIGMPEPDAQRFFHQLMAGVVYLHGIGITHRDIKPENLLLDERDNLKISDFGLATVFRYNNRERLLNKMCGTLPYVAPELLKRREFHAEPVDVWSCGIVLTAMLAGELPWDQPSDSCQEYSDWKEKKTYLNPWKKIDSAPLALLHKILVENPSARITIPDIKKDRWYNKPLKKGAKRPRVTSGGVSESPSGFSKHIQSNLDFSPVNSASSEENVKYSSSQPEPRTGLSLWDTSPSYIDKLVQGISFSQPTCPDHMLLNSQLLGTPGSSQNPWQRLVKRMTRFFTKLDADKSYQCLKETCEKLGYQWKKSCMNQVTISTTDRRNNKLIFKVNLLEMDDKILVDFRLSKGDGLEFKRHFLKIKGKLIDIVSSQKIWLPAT
The assay can be described thus: Flashplate method (CHK1), measurement of the CHK1 kinase activity. It is filed as biochemical. The conditions noted are these: class symbols; 'Affinity to receptors'. In outline: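 GST-tagged CHK1 expressed in Sf21 insect cells, incubated at 30 °C with biotinylated CHKtide (0.15 μg per well) and γ33P-ATP in pH 7.5 buffer (EGTA, Mg acetate, mercaptoethanol, 0.1% BSA). Stopped with EDTA, captured on streptavidin Flashplates and counted by scintillation. IC50 set against uninhibited reaction and 0.1 μM staurosporine as zero.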
As for `COCCOc1cccc(CNc2c(Nc3ccc4[nH]cnc4c3)c(=O)c2=O)c1` [Compound A106, 3-(1H-benzimidazol-5-ylamino)-4-[3-(2-methoxyethoxy)benzylamino]cyclobut-3-ene-1,2-dione], the IC50 was over 1000 nM.

`O=c1c(NCc2cccc(OCCO)c2)c(Nc2ccc3[nH]cnc3c2)c1=O` [Compound A107, 3-(1H-benzimidazol-5-ylamino)-4-[3-(2-hydroxyethoxy)benzylamino]cyclobut-3-ene-1,2-dione] registered an IC50 of over 1000 nM.

On to `CN(C)CCOc1cccc(CNc2c(Nc3ccc4[nH]cnc4c3)c(=O)c2=O)c1` [Compound A108, 3-(1H-benzimidazol-5-ylamino)-4-[3-(2-di-methylaminoethoxy)benzylamino]cyclobut-3-ene-1,2-dione], for which the IC50 was over 1000 nM.

`CC(=O)NCCOc1cccc(CNc2c(Nc3ccc4[nH]cnc4c3)c(=O)c2=O)c1` [Compound A109, 3-(1H-benzimidazol-5-ylamino)-4-[3-(2-acetamidoethoxy)benzylamino]cyclobut-3-ene-1,2-dione]: the IC50 is over 1000 nM.

The compound `CS(=O)(=O)NCCOc1cccc(CNc2c(Nc3ccc4[nH]cnc4c3)c(=O)c2=O)c1` [Compound A110, 3-(1H-benzimidazol-5-ylamino)-4-[3-(2-methylsulfonylaminoethoxy)benzylamino]-cyclobut-3-ene-1,2-dione] came in with an IC50 of over 1000 nM.

With `CCCCc1c(Nc2c(NCc3cccc(O)c3)c(=O)c2=O)ccc2[nH]cnc12` [Compound A111, 3-(4-butyl-1H-benzimidazol-5-ylamino)-4-(3-hydroxybenzylamino)cyclobut-3-ene-1,2-dione], the IC50 is over 1000 nM.

Regarding `O=C(CC(Nc1c(Nc2ccc3[nH]cnc3c2)c(=O)c1=O)c1cccc(O)c1)N1CCNCC1` (centres unmarked) [Compound A112, 3-(1H-benzimidazol-5-ylamino)-4-[1-(3-hydroxyphenyl)-3-oxo-3-piperazin-1-ylpropyl-amino]cyclobut-3-ene-1,2-dione], the IC50 is under 1000 nM.

As for `CN(C)CCNC(=O)CC(Nc1c(Nc2ccc3[nH]cnc3c2)c(=O)c1=O)c1cccc(O)c1` (centres unmarked) [Compound A113, 3-[2-(1H-benzimidazol-5-ylamino)-3,4-dioxo-cyclobut-1-enylamino]-N-(2-dimethylamino-ethyl)-3-(3-hydroxyphenyl)propionamide], the IC50 was over 1000 nM.

For `CC[C@@H](Nc1c(Nc2ccc3[nH]cnc3c2)c(=O)c1=O)c1cccc(OC)c1` [Compound A114, 3-(1H-benzimidazol-5-ylamino)-4-[(R)-1-(3-methoxyphenyl)propylamino]cyclobut-3-ene-1,2-dione], the IC50 was over 1000 nM.

`CC[C@H](Nc1c(Nc2ccc3[nH]cnc3c2)c(=O)c1=O)c1cccc(OC)c1` [Compound A115, 3-(1H-benzimidazol-5-ylamino)-4-[(S)-1-(3-methoxyphenyl)propylamino]cyclobut-3-ene-1,2-dione]: the IC50 is over 1000 nM.

`COc1cccc(CNc2c(Nc3ccc4[nH]cnc4c3)c(=O)c2=O)c1` [Compound A116, 3-(1H-benzimidazol-5-ylamino)-4-(3-methoxybenzylamino)cyclobut-3-ene-1,2-dione] came in with an IC50 of under 1000 nM.

Take `COCCNC(=O)CC(Nc1c(Nc2ccc3[nH]cnc3c2)c(=O)c1=O)c1cccc(O)c1` (centres unmarked) [Compound A117, 3-[2-(1H-benzimidazol-5-ylamino)-3,4-dioxo-cyclobut-1-enylamino]-3-(3-hydroxyphenyl)-N-(2-methoxyethyl)propionamide]: the IC50 is over 1000 nM.

`O=c1c(NCc2cccc(O)c2)c(Nc2cc(Cl)c3[nH]cnc3c2)c1=O` [Compound A118, 3-(7-chloro-1H-benzimidazol-5-ylamino)-4-(3-hydroxybenzylamino)cyclobut-3-ene-1,2-dione]: the IC50 was under 1000 nM.

Turning to `O=c1c(NCc2cccc(O)c2)c(Nc2ccc3scnc3c2)c1=O` [Compound A119, 3-(benzothiazol-5-ylamino)-4-(3-hydroxy-benzylamino)cyclobut-3-ene-1,2-dione], the IC50 was over 1000 nM.

As for `CC[C@@H](Nc1c(Nc2ccc3[nH]cnc3c2)c(=O)c1=O)c1cccc(O)c1` [Compound A120, 3-(1H-benzimidazol-5-ylamino)-4-[(R)-1-(3-hydroxyphenyl)propylamino]cyclobut-3-ene-1,2-dione], the IC50 was under 1000 nM.

With `COc1cccc(CNc2c(Nc3ccc4ncsc4c3)c(=O)c2=O)c1` [Compound A122, 3-(benzothiazol-6-ylamino)-4-(3-methoxy-benzylamino)cyclobut-3-ene-1,2-dione], the IC50 is over 1000 nM.

Compound `O=c1c(NCc2ccc3c(c2)OCO3)c(Nc2ccc3[nH]cnc3c2)c1=O` [Compound A123, 3-[(benzo[1,3]dioxol-5-ylmethyl)amino]-4-(1H-benzimidazol-5-ylamino)cyclobut-3-ene-1,2-dione] came in with an IC50 of over 1000 nM.

Take `CCN(CC)c1c(Nc2c(NCc3cccc(O)c3)c(=O)c2=O)cc(C(F)(F)F)c2[nH]cnc12` [Compound A124, 3-(4-diethylamino-7-trifluoromethyl-1H-benzimidazol-5-ylamino)-4-(3-hydroxy-benzylamino)cyclobut-3-ene-1,2-dione]: the IC50 was over 1000 nM.

`O=c1c(NCc2cccc(B(O)O)c2)c(Nc2ccc3[nH]cnc3c2)c1=O` [Compound A125, 3-{[2-(1H-benzimidazol-5-ylamino)-3,4-dioxo-cyclobut-1-enylamino]methyl}phenylboronic acid] yielded an IC50 of over 1000 nM.

Turning to `Cc1cc2[nH]cnc2cc1Nc1c(NCc2cccc(O)c2)c(=O)c1=O` [Compound A126, 3-(3-hydroxybenzylamino)-4-(6-methyl-1H-benzimidazol-5-ylamino)cyclobut-3-ene-1,2-dione], the IC50 is over 1000 nM.

As to `CC(=O)c1cccc(CNc2c(Nc3ccc4[nH]cnc4c3)c(=O)c2=O)c1` [Compound A127, 3-(1H-benzimidazol-5-ylamino)-4-(3-acetyl-benzylamino)cyclobut-3-ene-1,2-dione], the IC50 is over 1000 nM.

Turning to `COC(=O)Nc1cccc(CNc2c(Nc3ccc4[nH]cnc4c3)c(=O)c2=O)c1` [Compound A128, 3-(1H-benzimidazol-5-ylamino)-4-(3-methoxycarbonylaminobenzylamino)-cyclobut-3-ene-1,2-dione], the IC50 was over 1000 nM.

Regarding `O=c1c(NCc2cccc(O)c2)c(Nc2cc3nc[nH]c3cc2F)c1=O` [Compound A129, 3-(6-fluoro-1H-benzimidazol-5-ylamino)-4-(3-hydroxybenzylamino)cyclobut-3-ene-1,2-dione], the IC50 was over 1000 nM.

In turn, `O=C(O)c1cccc(CNc2c(Nc3ccc4[nH]cnc4c3)c(=O)c2=O)c1` [Compound A130, 3-(1H-benzimidazol-5-ylamino)-4-(3-carboxy-benzylamino)cyclobut-3-ene-1,2-dione] registered an IC50 of over 1000 nM.

In turn, `CS(=O)(=O)c1cccc(CNc2c(Nc3ccc4[nH]cnc4c3)c(=O)c2=O)c1` [Compound A131, 3-(1H-benzimidazol-5-ylamino)-4-(3-methyl-sulfonylbenzylamino)cyclobut-3-ene-1,2-dione] yielded an IC50 of over 1000 nM.

Regarding `CS(=O)(=O)Oc1cccc(CNc2c(Nc3ccc4[nH]cnc4c3)c(=O)c2=O)c1` [Compound A132, 3-(1H-benzimidazol-5-ylamino)-4-(3-methyl-sulfonyloxybenzylamino)cyclobut-3-ene-1,2-dione], the IC50 was over 1000 nM.
